# Like-named read-outs stand apart in the source and are kept apart here.
# Assays:
# [1] = Cytotoxicity / ATP level in PC-3 cells, 5-day treatment; conditions: human, PC-3 cells
# Description: (§4) All cells were cultured at 37°C in a 5% CO2 incubator with 90% humidity unless noted otherwise. […] All cells were treated with the various compounds for 5 days, except for human erythroid and myeloid progenitors, which were treated for 14 days. After the incubation period, cell viability was measured by the addition of CellTiter Glo viability reagents (Promega, Madison, WI). The luminescence signal was quantified on an Envision luminescence plate reader (PerkinElmer, Waltham, MA) after incubation of the reagents and cells for 10 min at room temperature. […] CC50 values were calculated as the average of the results of three or four independent experiments.
# Cell Culture and Cytotoxicity Studies
# (§5) The Huh-7 cells were maintained in growth medium containing Dulbecco's Modified Eagle
# (§6) Medium (DMEM, Cellgro) supplemented with 1% Nonessential Amino Acids (NEAA, Cellgro,
# (§7) Manassas, VA), 10% fetal bovine serum (FBS, HyClone, Logan, UT) and 1% Penicillin-
# (§8) streptomycin-glutamate (PSG, Invitrogen, Carlsbad, CA). The cells were passaged twice weekly
# (§9) and maintained at 90% confluence densities.
# (§10) The HepG2 cells were maintained in Eagle’s Minimum Essential Medium (EMEM) from ATCC
# (§11) (Manassas, VA) supplemented with 10% FBS, 100 units/mL penicillin and 100 µg/mL
# (§12) streptomycin (P/S) (Gibco). The cells were passaged twice weekly and maintained at 90%
# (§13) The PC-3 cells were maintained in Kaighn’s F12 medium (Gibco, Carlsbad, CA) supplemented
# (§14) with 10% FBS (HyClone, Logan, UT), 100 units/mL penicillin and 100 µg/mL streptomycin
# (§15) (P/S) (Gibco). The cells were passaged twice weekly and maintained at 90% confluence. Cells
# (§16) between passages 4 and 15 were used in the assays.
# (§17) The fibroblast cell line MRC-5 cell line derived from normal lung tissue, was purchased from
# (§18) ATCC (Manassas, VA) and cultured in Minimum Essential Medium (MEM) (Cellgro, Manassas,
# (§19) VA) supplemented with 10% FBS (HyClone, Logan, UT) and 1% PSG (Invitrogen). The cells
# (§20) were passaged twice weekly and maintained at 90% confluence densities.
# Prostate cells (PC-3) = test: as above; conditions: read-out: Mean CC50 ± SD causing General cellular toxicity: ATP level; PC-3 cells, 5 days
# Description: as §4
# Cell Culture and Cytotoxicity Studies
# as §5, §6, §7, §8, §9, §10, §11, §12, §13, §14, §15, §16, §17, §18, §19, §20
# recombinant human PolRMT = biological target: T1, recombinant human PolRMT (Homo sapiens, UniProt O00411); test: Inhibition of PolRMT-catalyzed RNA synthesis; type: biochemical; conditions: triphosphate form of the compound tested (Table 4); read-out: Mean IC50 ± SD for PolRMT
# T1 construct: purchased Enzymax (Lexington, KY)
# Description: (§1) Activated fish sperm DNA was purchased from USB/Affymetrix (Santa Clara, CA) and used as a template for the DNA polymerases alpha, beta, and gamma. […] The RNA and DNA oligonucleotides used in the mitochondrial RNA polymerase assay (see Table S1 in the supplemental material) were synthesized and PAGE purified by Thermo Scientific/Dharmacon (Lafayette, CO). RNA primer R12 was 5′-^32P-phosphorylated with [γ-^32P]ATP (3,000 Ci/mmol) and T4 kinase (New England BioLabs, Ipswich, MA).
# (§2) Human DNA polymerase alpha, isolated from HeLa cell extracts, was from CHIMERx (Madison, WI). Recombinant human DNA polymerase beta, expressed in E. coli, was a gift from Zucai Suo at The Ohio State University. Recombinant human DNA polymerase gamma (including both the large subunit and the small subunit) was cloned, expressed, and purified from insect cells by Gilead Sciences (Foster City, CA) ([13]). RNA PolII was purchased as part of the HeLaScribe nuclear extract in vitro transcription system kit from Promega (Madison, WI). The recombinant human PolRMT and the transcription factors mitochondrial transcription factor A (mtTFA) and B2 (mtTFB2) were purchased from Enzymax (Lexington, KY). FLAG epitope-tagged RNA PolI and PolIII complexes were isolated from rat NSN1 cells and HeLa cells, respectively ([17], [18]). The inhibition of DNA polymerases alpha, beta, and gamma, PolRMT, and PolII and the rate of single-nucleotide incorporation by PolRMT have been described previously in detail ([12], [13], [19]). Inhibition of RNA PolI and PolIII was studied using published methods ([20], [21]). All concentrations were final unless noted otherwise. […] After incubation at 30°C for 20 min to 1 h, the reactions were terminated by pipetting the mixtures onto DEAE-cellulose discs (DE81; Whatman), and the products analyzed as described previously ([20], [21]).
# [2] = tested on: nuclear DNA-encoded succinate dehydrogenase (SDH-A; complex II) protein level; test: Nuclear protein synthesis (SDH-A, MitoBiogenesis in-cell ELISA) in PC-3 cells; type: cell-based, human; conditions: human, read-out: Mean CC50 ± SD causing General cellular toxicity: Protein synthesis
# Summary of the method: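 PC-3 cells were exposed to compound for 5 days. Protein levels of nuclear-encoded SDH-A and mitochondrial-encoded COX-1 were then quantified by in-cell ELISA (quantitative immunocytochemistry).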
# [3] = biological target: T2, Human DNA polymerase alpha (Homo sapiens, UniProt P09884); test: Inhibition of human DNA polymerase alpha; type: biochemical; conditions: triphosphate form of the compound tested; read-out: Mean IC50 ± SD for DNA Pol α
# T2 construct: isolated from HeLa cell extracts; purchased CHIMERx (Madison, WI); host or cells: HeLa cell extracts (endogenous enzyme)
# Description: as §1, §2
# RNA PolII = biological target: T3, RNA PolII (Homo sapiens, UniProt P24928+P30876); test: Inhibition of RNA PolII (HeLaScribe nuclear extract transcription); type: biochemical; conditions: read-out: Mean IC50 ± SD for RNA PolII
# T3 construct: purchased as part of the HeLaScribe nuclear extract in vitro transcription system kit; purchased Promega (Madison, WI); host or cells: HeLa nuclear extract (endogenous enzyme)
# Description: (§3) Activated fish sperm DNA was purchased from USB/Affymetrix (Santa Clara, CA) and used as a template for the DNA polymerases alpha, beta, and gamma. The DNA template used in the RNA Pol II assay was a 1,188-bp restriction fragment containing the cytomegalovirus (CMV) immediate early promoter (Promega, Madison, WI). The RNA and DNA oligonucleotides used in the mitochondrial RNA polymerase assay (see Table S1 in the supplemental material) were synthesized and PAGE purified by Thermo Scientific/Dharmacon (Lafayette, CO). RNA primer R12 was 5′-^32P-phosphorylated with [γ-^32P]ATP (3,000 Ci/mmol) and T4 kinase (New England BioLabs, Ipswich, MA).
# as §2, with “otherwise. For the RNA PolI inhibition assay, a reaction mixture containing 50 mM HEPES (pH 7.9), 20% glycerol, 100 mM KCl, 1 mM dithiothreitol (DTT), 50 μg/ml calf thymus DNA, 4 mM MgCl2, 5 or 80 μM UTP (0.25 μl of [5,6-^3H]UTP, >25 Ci/mmol; PerkinElmer), 1 mM noncompeting NTP, competing NTP (5 μM for GTP, CTP, and UTP and 25 μM for ATP), and various concentrations (0 to 500 μM) of NTP analogs was preincubated at 30°C for 5 min.” for “otherwise.”
# [4] = biological target: T4, Recombinant human DNA polymerase beta (Homo sapiens, UniProt P06746); test: Inhibition of human DNA polymerase beta; type: biochemical; conditions: triphosphate form of the compound tested; read-out: Mean IC50 ± SD for DNA Pol β
# T4 construct: host or cells: E. coli
# Description: as §3
# as §2, with “otherwise. For the RNA PolI inhibition assay, a reaction mixture containing 50 mM HEPES (pH 7.9), 20% glycerol, 100 mM KCl, 1 mM dithiothreitol (DTT), 50 μg/ml calf thymus DNA, 4 mM MgCl2, 5 or 80 μM UTP (0.25 μl of [5,6-^3H]UTP, >25 Ci/mmol; PerkinElmer), 1 mM noncompeting NTP, competing NTP (5 μM for GTP, CTP, and UTP and 25 μM for ATP), and various concentrations (0 to 500 μM) of NTP analogs was preincubated at 30°C for 5 min.” for “otherwise.”
# [5] = Bone marrow erythroid progenitor colony assay, 14 days; type: cell-based, human; conditions: human, read-out: Mean CC50 ± SD in Bone marrow cells Erythroid; for CC50 at 14 days: human bone marrow erythroid progenitors
# [6] = triphosphate form of the compound tested (Table 4)
# T2 sequence (P09884 whole entry): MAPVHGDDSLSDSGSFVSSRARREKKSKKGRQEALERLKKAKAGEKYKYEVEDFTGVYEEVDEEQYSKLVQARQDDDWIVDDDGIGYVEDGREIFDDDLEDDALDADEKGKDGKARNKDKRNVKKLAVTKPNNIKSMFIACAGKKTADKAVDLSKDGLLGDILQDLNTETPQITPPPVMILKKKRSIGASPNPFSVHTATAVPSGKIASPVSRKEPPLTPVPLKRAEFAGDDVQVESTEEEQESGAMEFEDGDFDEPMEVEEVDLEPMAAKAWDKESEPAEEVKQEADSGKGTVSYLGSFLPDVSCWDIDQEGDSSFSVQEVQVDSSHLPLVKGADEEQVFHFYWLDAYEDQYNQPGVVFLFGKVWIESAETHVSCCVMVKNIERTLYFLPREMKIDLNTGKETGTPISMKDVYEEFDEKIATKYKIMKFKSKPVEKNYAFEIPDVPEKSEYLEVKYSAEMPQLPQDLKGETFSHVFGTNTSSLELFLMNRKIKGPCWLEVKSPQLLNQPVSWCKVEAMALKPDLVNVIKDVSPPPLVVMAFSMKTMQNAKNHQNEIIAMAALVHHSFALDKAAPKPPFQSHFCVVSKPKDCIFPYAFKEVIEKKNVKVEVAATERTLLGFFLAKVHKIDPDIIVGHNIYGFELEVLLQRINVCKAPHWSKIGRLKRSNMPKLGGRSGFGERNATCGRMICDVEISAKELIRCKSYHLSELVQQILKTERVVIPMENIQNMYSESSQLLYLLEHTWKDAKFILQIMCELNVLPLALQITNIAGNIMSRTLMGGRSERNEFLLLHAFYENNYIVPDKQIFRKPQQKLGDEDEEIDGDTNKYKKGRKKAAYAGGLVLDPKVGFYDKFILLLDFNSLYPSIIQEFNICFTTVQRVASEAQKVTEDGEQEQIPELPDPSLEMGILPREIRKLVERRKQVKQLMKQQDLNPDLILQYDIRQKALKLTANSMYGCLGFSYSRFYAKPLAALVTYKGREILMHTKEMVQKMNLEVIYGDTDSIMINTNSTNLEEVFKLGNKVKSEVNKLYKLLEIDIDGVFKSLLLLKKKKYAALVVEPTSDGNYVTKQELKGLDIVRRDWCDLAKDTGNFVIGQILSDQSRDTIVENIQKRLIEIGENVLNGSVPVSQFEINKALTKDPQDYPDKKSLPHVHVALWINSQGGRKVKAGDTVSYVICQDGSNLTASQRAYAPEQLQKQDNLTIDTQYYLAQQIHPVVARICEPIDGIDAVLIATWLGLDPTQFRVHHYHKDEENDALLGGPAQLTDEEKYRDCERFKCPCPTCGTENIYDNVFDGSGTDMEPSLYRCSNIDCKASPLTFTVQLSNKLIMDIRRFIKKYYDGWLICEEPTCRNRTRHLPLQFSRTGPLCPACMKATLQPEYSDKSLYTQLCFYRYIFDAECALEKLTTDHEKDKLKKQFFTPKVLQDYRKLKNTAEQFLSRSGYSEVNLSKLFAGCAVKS
# T2 sequence (Q14181 whole entry partner): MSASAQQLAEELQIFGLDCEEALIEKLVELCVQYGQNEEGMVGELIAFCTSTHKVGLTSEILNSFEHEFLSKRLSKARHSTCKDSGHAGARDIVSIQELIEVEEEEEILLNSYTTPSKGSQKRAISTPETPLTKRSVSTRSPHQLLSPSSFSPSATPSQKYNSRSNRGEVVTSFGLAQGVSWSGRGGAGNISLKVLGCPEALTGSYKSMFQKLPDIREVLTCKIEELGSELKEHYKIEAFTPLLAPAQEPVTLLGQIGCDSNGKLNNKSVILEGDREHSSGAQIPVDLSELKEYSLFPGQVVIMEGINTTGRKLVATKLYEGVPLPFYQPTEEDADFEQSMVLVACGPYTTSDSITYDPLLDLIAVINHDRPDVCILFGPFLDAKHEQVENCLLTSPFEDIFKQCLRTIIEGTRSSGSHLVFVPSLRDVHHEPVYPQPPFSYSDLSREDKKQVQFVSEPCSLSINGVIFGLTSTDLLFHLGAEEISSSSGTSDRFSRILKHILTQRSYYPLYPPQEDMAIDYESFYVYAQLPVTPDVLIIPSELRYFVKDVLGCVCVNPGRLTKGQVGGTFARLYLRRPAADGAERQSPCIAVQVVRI
# T2 sequence (P49642 whole entry partner): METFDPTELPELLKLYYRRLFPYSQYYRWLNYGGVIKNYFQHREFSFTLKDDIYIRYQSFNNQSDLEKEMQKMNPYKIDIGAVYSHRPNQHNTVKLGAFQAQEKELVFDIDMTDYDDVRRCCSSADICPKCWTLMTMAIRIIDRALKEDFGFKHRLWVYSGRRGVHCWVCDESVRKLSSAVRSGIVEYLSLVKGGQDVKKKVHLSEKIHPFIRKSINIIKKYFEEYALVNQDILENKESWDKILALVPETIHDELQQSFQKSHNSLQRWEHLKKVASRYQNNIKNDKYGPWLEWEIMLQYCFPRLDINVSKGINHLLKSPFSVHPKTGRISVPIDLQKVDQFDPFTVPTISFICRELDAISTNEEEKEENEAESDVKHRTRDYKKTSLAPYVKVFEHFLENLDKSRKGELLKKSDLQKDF
# T2 sequence (P49643 whole entry partner): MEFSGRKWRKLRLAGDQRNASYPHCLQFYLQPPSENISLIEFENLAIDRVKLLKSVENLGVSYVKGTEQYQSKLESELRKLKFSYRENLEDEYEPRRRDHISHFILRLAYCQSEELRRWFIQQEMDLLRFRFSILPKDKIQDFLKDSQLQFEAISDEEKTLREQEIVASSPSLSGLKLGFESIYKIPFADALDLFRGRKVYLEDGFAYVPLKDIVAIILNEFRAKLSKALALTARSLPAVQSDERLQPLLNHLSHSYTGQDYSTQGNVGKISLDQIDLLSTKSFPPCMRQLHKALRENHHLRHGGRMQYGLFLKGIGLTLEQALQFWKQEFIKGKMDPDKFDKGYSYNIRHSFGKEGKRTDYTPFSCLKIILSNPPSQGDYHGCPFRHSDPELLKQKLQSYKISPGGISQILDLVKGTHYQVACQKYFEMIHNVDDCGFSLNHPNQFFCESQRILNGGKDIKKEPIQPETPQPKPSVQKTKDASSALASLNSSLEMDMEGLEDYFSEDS
# T1 sequence (O00411 42-1230): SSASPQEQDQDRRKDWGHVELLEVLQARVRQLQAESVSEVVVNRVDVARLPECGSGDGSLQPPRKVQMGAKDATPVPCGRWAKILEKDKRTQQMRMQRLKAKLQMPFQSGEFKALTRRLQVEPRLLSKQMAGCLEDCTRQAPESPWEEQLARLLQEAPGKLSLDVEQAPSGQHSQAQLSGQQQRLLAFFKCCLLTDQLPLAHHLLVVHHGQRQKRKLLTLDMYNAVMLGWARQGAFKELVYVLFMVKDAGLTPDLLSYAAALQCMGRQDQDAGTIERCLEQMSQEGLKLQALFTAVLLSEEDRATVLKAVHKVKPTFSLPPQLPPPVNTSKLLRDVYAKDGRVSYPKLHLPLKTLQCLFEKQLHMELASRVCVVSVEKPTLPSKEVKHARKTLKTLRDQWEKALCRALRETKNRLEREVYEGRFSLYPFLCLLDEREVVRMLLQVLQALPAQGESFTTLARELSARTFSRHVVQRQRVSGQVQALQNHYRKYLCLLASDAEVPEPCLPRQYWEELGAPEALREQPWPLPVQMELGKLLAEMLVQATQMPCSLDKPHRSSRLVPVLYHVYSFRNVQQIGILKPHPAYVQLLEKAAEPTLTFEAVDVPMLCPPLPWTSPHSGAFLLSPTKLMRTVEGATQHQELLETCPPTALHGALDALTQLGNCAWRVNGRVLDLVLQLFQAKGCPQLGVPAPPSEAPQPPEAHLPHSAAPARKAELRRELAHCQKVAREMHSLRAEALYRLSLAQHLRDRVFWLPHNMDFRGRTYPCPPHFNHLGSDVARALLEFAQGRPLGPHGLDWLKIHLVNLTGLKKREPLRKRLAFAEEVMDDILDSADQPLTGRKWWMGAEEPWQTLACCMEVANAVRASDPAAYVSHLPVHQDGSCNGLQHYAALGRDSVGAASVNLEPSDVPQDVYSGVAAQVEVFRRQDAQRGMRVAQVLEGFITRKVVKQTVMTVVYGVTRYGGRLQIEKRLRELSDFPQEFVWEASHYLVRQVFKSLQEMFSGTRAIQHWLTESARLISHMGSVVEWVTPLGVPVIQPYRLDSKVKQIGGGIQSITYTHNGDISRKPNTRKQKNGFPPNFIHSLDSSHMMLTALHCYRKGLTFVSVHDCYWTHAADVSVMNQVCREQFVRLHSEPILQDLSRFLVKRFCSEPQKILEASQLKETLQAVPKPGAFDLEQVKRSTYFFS
SMILES,IC50 (recombinant human PolRMT) [µM],IC50 [3] [µM],IC50 (RNA PolII; [6]) [µM],IC50 [4] [µM],IC50 (RNA PolII; nucleotide analogs (Table 6)) [µM],CC50 at 5 days [1] [µM],CC50 (Prostate cells (PC-3)) [µM],CC50 at 5 days [2] [µM],CC50 at 14 days [5] [µM],CC50 [5] [µM]
C[C@@]1(O)[C@H](O)[C@@H](COP(=O)(O)OP(=O)(O)OP(=O)(O)O)O[C@H]1n1cnc2c(=O)[nH]c(N)nc21 [2′CMeGTP],–,> 200,> 200,> 200,> 500,–,–,–,–,–
COc1nc(N)nc2c1ncn2[C@@H]1O[C@H](COP(=O)(N[C@@H](C)C(=O)OCC(C)(C)C)Oc2cccc3ccccc23)[C@@H](O)[C@@]1(C)O (some centres unmarked) [BMS-986094],52,–,–,–,–,–,–,0.84 ± 0.26,–,4.5 ± 1.5
"C[C@@]1(O)[C@H](O)[C@@H](CO)O[C@H]1n1ccc(N)nc1=O [2′CMeC, 2′-C-methyl (2′CMe) cytidine]",230 ± 90,> 200,> 200,> 200,–,49 ± 18,–,68 ± 26,99 ± 18,–
CC(C)OC(=O)[C@H](C)N[P@](=O)(OC[C@H]1O[C@@H](n2ccc(=O)[nH]c2=O)[C@](C)(F)[C@@H]1O)Oc1ccccc1 [Sofosbuvir],> 500,> 200,> 200,> 200,–,–,> 100,> 100,–,–
"[N-]=[N+]=N[C@]1(CO)O[C@@H](n2ccc(N)nc2=O)[C@H](O)[C@@H]1O [4′-AzidoC, 4′-azido cytidine]",3.8 ± 2,> 200,> 200,> 200,–,30 ± 6,–,> 50,> 100,–
CC(C)OC(=O)[C@H](C)N[P@](=O)(OC[C@H]1O[C@@](C#N)(c2ccc3c(N)ncnn23)[C@](C)(O)[C@@H]1OC(=O)C(C)C)Oc1ccccc1 [GS-6620],> 500,> 200,> 200,> 200,–,–,–,45 ± 2,–,–

# More lines, main results first:
IC50 (recombinant human PolRMT) [µM],IC50 [3] [µM],IC50 (RNA PolII; [6]) [µM],IC50 [4] [µM],IC50 (RNA PolII; nucleotide analogs (Table 6)) [µM],SMILES,CC50 at 5 days [1] [µM],CC50 (Prostate cells (PC-3)) [µM],CC50 at 5 days [2] [µM],CC50 at 14 days [5] [µM],CC50 [5] [µM]
> 500,> 200,> 200,> 200,–,C[C@@]1(F)[C@H](O)[C@@H](CO)O[C@H]1n1ccc(N)nc1=O [PSI-6130],> 100,> 100,> 100,–,–
> 500,> 200,> 200,> 200,–,CCOc1nc(N)nc2c1ncn2[C@@H]1O[C@@H]2COP(=O)(OC(C)C)O[C@H]2[C@@]1(C)F (some centres unmarked) [PSI-938],> 100,> 100,> 100,> 100,–
